Values joined by “and” are separate entries in the source; they are usually repeats but may differ in a detail not shown here. Equal entries are not always repeated. “Also recorded” adds a separate entry of the source.

Type in all cases: cell-based, human
Assay [1] deals with cardiomyocytes from ARVD/C hiPSCs. In words: TUNEL cell viability assay, cardiomyocytes from mutant PKP2 (ARVD/C) hiPSCs. To be noted: two weeks treatment, TUNEL with α-actinin co-stain. The procedure: (§1) The normal and mutant Plakophilin 2 (PKP2) cells were generated as described previously^37. Induced pluripotent cells were cultured with E8 medium in Matrigel® coated plates. Cardiomyocytes were obtained using a protocol based on Lian et al^38 that involves Wnt agonist CHIR 99021 in the early stages of differentiation followed by the Wnt antagonist IWP2 under monolayer condition. Before Day 7, cells were cultured in RPMI plus B27 without insulin while on Day 7 and afterwards, EB media (KO-DMEM with 2% FBS, 1 mM NEAAs, 1× GlutaMAX, 1 mM mercaptoethanol, and penicillin/streptomycin) was used. At 30 days of differentiation, beating EBs were treated with three factors (3F) (50 μg/ml insulin, 0.5 μM dexamethasone, and 0.25 mM IBMX) or five factors (5F) (3F plus PPAR-γ agonists 5 μM rosiglitazone and 200 μM indomethacin) media as described earlier or treated with 1 mM AICAR or AICAR plus rosiglitazone and indomethacin for two weeks. TUNEL staining with In Situ Cell Death Detection Kit TMR Red™ (Roche®) was used to assess cell viability after conducting different treatment. TUNEL staining was co-stained with anti-α-actinin antibody so that cardiomyocyte-specific apoptosis could be assessed.

The test system of another assay is hiPSC-CMs. As to the kind of experiment: mtDNA to nDNA ratio by q-PCR in cardiomyocytes. To be noted: relative to control hiPSC-CMs. From the text: Mitochondrial DNA (mtDNA) to nuclear DNA (nDNA) ratio was estimated by q-PCR. For this purpose, a mtDNA fragment within the NADH dehydrogenase 1 (ND 1) gene and a region of the nuclear DNA-encoded lipoprotein lipase gene (LPL) were amplified. The primer sequences for ND 1 and LPL were adapted from^30. Total DNA was extracted using Qiagen DNeasy Kit™.

In assay [2] the test system is hiPSC-derived cardiomyocytes. In words: Contractile force assessment on micropost arrays. To be noted: 1 mM AICAR for one week. How it is done: Contractile force was assessed using micropost arrays, following a procedure similar to previously reported studies on cardiomyocytes^2, 31, 32. The process used to fabricate the micropost arrays is described in detail elsewhere^33, 34. The microposts (6.45 μm in height, 2.3 μm in diameter, 6 μm center-to-center post spacing) were cast onto 25 mm diameter round #1 glass coverslips (VWR®). To enable cell attachment, the tips of these microposts were stamped with 50 μg/ml of mouse laminin (Life Technologies®) via microcontact printing, while the remaining surfaces of the micropost array were fluorescently stained with BSA conjugates with Alexa Fluor 594 and blocked with 0.2% Pluronic F-127 (in PBS)^34. Twenty days following differentiation, hiPSC-derived cardiomyocytes were seeded onto the micropost arrays in Attoflour chambers at a density of approximately 500,000 cells per chamber (˜100,000 cells/cm^2), in RPMI media supplemented with 5% fetal bovine serum. After 24 hours, the medium was replaced with serum-free RPMI-B27 plus insulin, which then was exchanged every other day. Beginning two days after seeding, half of the substrates were treated with 1 mM AICAR for one week. Prior to live imaging, the media was exchanged to Tyrode's buffer. Individual cardiomyocyte twitch forces were recorded under phase light using high-speed video microscopy in a live cell chamber at 37° C., as previously described^32. Only the contractile forces of single cardiomyocytes (no junctions with adjacent cells) with obvious beating activity were assessed. Post deflections were optically measured at approximately 100 frames/sec on a Nikon Ti-E™ upright microscope with a 60× water immersion objective. A custom-written MATLAB™ code was used to compare each time frame of the video to a reference fluorescent image taken at the base of the posts. Contractile forces were subsequently calculated by multiplying the deflection of each microposts by its bending stiffness: F=kδ (1) where F is the force at a single micropost, k is the post's bending stiffness (44.54 nN/μm for this study), and δ is the horizontal distance between the centroid of the post's tip and the centroid of the post's base. The total contractile force for each cardiomyocyte was calculated as the sum of the forces at each post beneath it. The passive tension, or baseline force, was defined as the contractile force when a cardiomyocyte was at rest, i.e. in between beats. The total twitch force was defined as the difference between the peak contractile force (achieved during a twitch) and the passive tension. Additionally, the average twitch force per post was analyzed in order to normalize the total twitch force by cell area. The average twitch force per post was calculated as the total twitch force divided by the number of posts underneath a cardiomyocyte. Passive tension, total twitch force, average twitch force per post, and beating frequency were used to compare the independent biological replicates (N=2, with 16-38 cells per independent biological replicate).

A further assay has as its system control cardiomyocytes. In words: TUNEL cell viability assay, control cardiomyocytes from normal iPSCs. The following applies: two weeks treatment, TUNEL with α-actinin co-stain. The procedure: as §1
Another assay deals with hPSC-CMs. As to the kind of experiment: Electron microscopy and point counting of relative mitochondrial volume. To be noted: after AICAR treatment; control 0.068±0.006. How it is done: Adherent cells in tissue culture dishes were fixed for transmission electron microscopy in half-strength Karnovsky's fixative (2.0% paraformaldehyde, 2.5% glutaraldehyde, 0.1M phosphate buffer, pH 7.4) overnight. The cells were then washed in 0.1M phosphate buffer two times (5 minutes each) and post-fixed in 1.0% OsO4 in 0.1M phosphate buffer. Cells were rinsed twice (5 minutes each) then dehydrated in […], 70% and 90% alcohol, 2 minutes each, then in 100% alcohol twice (5 minutes each). Cells were embedded in Polybed 812 Resin™ (Ted Pella®, Redding, Calif.) by first infiltrating with a mixture of 50% alcohol/50% polybed for 1 hour and then pure polybed for 3 hours. Beem capsules filled with fresh resin were inverted over areas of cells. Polymerization procedure was performed for 24 hours at 65° C. Removal of beem capsules was achieved by placing plates in boiling water then gently peeling the capsule containing the polymerized resin and cells away from the plastic plate. Sections for light and transmission electron microscopy were cut using a Reichert Ultracut E Microtome™. […] The relative mitochondrial volume was calculated by point counting, in which 20 horizontal and 20 perpendicular lines were drawn in the images and the crosspoints that overlapped with mitochondria was counted and then divided by the total points.

For the compound `NC(=O)c1ncn([C@@H]2O[C@H](CO)[C@@H](O)[C@H]2O)c1N` [AICAR, 5-amino-4-imidazolecarboxamide riboside-1-β-D-ribofuranoside], in assay [1], the “apoptosis / cell death in cardiomyocytes from ARVD/C (mutant PKP2) hiPSCs” value was “induced significant apoptosis; also recorded: induced significant cell death”. Also, the “increase in the ratio of mtDNA to nDNA” value in the assay with hiPSC-CMs is recorded as 55%. Further, the beating frequency in assay [2] (control 0.87±0.07) is 0.49±0.04 Hz. In addition, in assay [2] (control 9.7±0.7), the twitch force was 14.1±1.6 nN/cell and ~14.1 nN/cell. Besides, in assay [2] (control 82.68±4.35), the passive tension is 114.77±7.93 nN/cell. The “cellular size on microposts” value in assay [2] (control 213±5) was determined as 260±11 μm^2. The “average twitch force per post” value in assay [2] (controls ~1.2) is roughly 1.4 nN/post. Further, the “apoptosis in control cardiomyocytes” value with control cardiomyocytes was “None of the treatment groups significantly leads to apoptosis”. Besides, in the assay with hPSC-CMs, the mitochondrial volume fraction turned out to be 0.119±0.013.

The values above are taken from US20220152117A1, “METHODS OF PROMOTING CELLULAR MATURATION WITH AMPK ACTIVATORS” (UNIVERSITY OF WASHINGTON, priority 2019, published 2022).
